One assay concerns the target T1, CK2α subunit (Homo sapiens, UniProt P68400).
T1 construct: made in house; host or cells: E. coli BL21(DE3)
The assay can be described thus: Capillary electrophoresis (CE) assay, enzyme inhibition of the CK2α subunit. It is filed as biochemical. The following applies: for Inhibition (%) of CK2α: c=10 μM, CE assay, mean±SD of three experiments, n.s.=not significant. The source says: (§1) In this assay, the decapeptide […], a known class I substrate suitable for assaying the kinase activity of both the CK2 holoenzyme and the catalytically active CK2 subunits,50, 58 was reacted with ATP in the presence of enzyme, which transfers a phosphate group to Ser7 of the decapeptide. Due to the additional negative charge of the phosphate group, the decapeptide and the phosphorylated decapeptide can be separated by CE. […] The data on the inhibition of the kinase activities of CK2α2β2, CK2α subunit and mutated CK2α’ ^C336S subunit are summarized in Table 1.
(§2) Enzymatic activities with or without inhibitors were determined for the holoenzyme (CK2α2β2), the CK2α subunit, and the mutated CK2α′ ^C336S subunit by a capillary electrophoresis assay as described before.59 For this purpose, CK2α as well as (CK2α2β2) holoenzyme were purified after recombinant expression in E. coli BL21(DE3) and purified according the protocol of Grankowski et al.62 The mutated CK2α′ ^C336S subunit was purified by Ni‐NTA affinity chromatography using an N‐terminally attached His6 tag. Successful purification was controlled by SDS‐PAGE. Enzymatic activity was determined in the presence of 60 μM ATP and 114 μM of the substrate peptide […]. For both CK2α subunits an assay buffer containing 100 mM NaCl instead of 60 mM NaCl as for the holoenzyme, and 20 mM MgCl2 instead of 10 mM MgCl2 was applied. For the holoenzyme, 1 μg was added, whereas for CK2α and the mutated CK2α′ ^C336S subunit 0.25 μg was added each. For each compound inhibition was determined three times independently at an initial concentration of 10 μM and the mean value and the standard deviation (SD) were calculated.

The test system of a further assay is monomeric CK2α. On the set-up: method as in PMID 18553057. Conditions: read-out: IC50, inhibition of the catalytic activity of monomeric CK2α; cited from earlier work.
The next assay concerns CK2α/CK2β interaction. More on the design: method as in PMID 18553057. The following applies: read-out: IC50, inhibition of CK2α/CK2β interaction (PPII); cited from earlier work.
For a further assay, the target named is T2, holoenzyme CK2α2β2 (Homo sapiens, UniProt P68400).
T2 construct: made in house; host or cells: E. coli BL21(DE3)
T2 sequence (P68400 whole entry): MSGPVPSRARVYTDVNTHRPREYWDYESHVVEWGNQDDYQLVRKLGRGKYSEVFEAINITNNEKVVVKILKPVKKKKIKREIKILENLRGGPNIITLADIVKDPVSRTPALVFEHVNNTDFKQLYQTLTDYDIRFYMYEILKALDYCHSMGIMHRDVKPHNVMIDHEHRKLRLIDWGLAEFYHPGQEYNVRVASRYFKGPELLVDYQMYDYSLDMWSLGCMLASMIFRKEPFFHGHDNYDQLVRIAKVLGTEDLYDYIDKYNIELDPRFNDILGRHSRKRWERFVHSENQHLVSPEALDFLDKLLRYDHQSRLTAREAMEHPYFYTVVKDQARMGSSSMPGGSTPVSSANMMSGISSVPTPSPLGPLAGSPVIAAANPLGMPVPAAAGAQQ
The assay is described as follows: Capillary electrophoresis (CE) assay, enzyme inhibition of the holoenzyme. It is filed as biochemical. The following applies: for inhibition at 10 µM: read-out: Inhibition (%) of CK2α2β2. How it is done: In this assay, the decapeptide […], a known class I substrate suitable for assaying the kinase activity of both the CK2 holoenzyme and the catalytically active CK2 subunits,50, 58 was reacted with ATP in the presence of enzyme, which transfers a phosphate group to Ser7 of the decapeptide. Due to the additional negative charge of the phosphate group, the decapeptide and the phosphorylated decapeptide can be separated by CE.
Enzymatic activities with or without inhibitors were determined for the holoenzyme (CK2α2β2), the CK2α subunit, and the mutated CK2α′ ^C336S subunit by a capillary electrophoresis assay as described before.59 For this purpose, CK2α as well as (CK2α2β2) holoenzyme were purified after recombinant expression in E. coli BL21(DE3) and purified according the protocol of Grankowski et al.62 The mutated CK2α′ ^C336S subunit was purified by Ni‐NTA affinity chromatography using an N‐terminally attached His6 tag. […] For both CK2α subunits an assay buffer containing 100 mM NaCl instead of 60 mM NaCl as for the holoenzyme, and 20 mM MgCl2 instead of 10 mM MgCl2 was applied. For the holoenzyme, 1 μg was added, whereas for CK2α and the mutated CK2α′ ^C336S subunit 0.25 μg was added each. For each compound inhibition was determined three times independently at an initial concentration of 10 μM and the mean value and the standard deviation (SD) were calculated.

Assay [1] addresses T3, mutated CK2α’ ^C336S subunit (Homo sapiens, UniProt P19784, C336S).
T3 construct: His6 (N); made in house
T3 sequence (P19784 1-350 C336S): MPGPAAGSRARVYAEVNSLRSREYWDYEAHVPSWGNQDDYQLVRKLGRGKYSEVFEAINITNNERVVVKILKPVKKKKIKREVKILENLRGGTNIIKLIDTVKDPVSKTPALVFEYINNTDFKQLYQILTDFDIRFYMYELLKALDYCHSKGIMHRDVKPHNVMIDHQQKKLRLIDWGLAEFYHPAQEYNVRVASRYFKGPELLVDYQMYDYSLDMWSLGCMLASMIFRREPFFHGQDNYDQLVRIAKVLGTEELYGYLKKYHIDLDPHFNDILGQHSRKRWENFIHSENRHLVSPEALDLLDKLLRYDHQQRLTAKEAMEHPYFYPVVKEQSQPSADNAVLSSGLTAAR
The assay is described as follows: Capillary electrophoresis (CE) assay, enzyme inhibition of the mutated CK2α′ C336S subunit. The following applies: c=10 μM, CE assay, mean±SD of three experiments, n.s.=not significant; for inhibition at 10 µM: read-out: Inhibition (%) of CK2α’ ^C336S. It is filed as biochemical.
From the text: as §1, §2

In assay [2] the target is T4, CK2α/CK2β interaction (CK2α^1−335 / fluorescently labeled CK2β^1−193) (Homo sapiens, UniProt P68400).
T4 sequence (P68400 1-335): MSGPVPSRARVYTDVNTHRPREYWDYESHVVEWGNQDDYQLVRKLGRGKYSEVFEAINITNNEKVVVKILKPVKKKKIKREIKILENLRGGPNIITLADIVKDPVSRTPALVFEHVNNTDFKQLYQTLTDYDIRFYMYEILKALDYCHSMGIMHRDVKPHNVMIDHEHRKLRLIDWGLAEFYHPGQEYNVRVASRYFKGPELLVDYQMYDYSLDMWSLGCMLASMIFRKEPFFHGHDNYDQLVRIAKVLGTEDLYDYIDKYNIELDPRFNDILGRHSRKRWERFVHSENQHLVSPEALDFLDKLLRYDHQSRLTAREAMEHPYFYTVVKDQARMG
Description: The inhibition of the interaction between the CK2α and the CK2β subunit was determined in a microscale thermophoresis (MST) assay.
To quantify the protein‐protein interaction in the presence of potential inhibitors, the investigated compounds were first dissolved in DMSO (2‐10 mM) and then 50‐fold diluted in ITC buffer (25 mM Tris‐HCl, 500 mM NaCl, pH 8.5) containing 0.1 % (v/v) Tween 20 to concentrations of either 40, 100 or 200 μM in 2 % (v/v) DMSO, i. e. twice the final concentrations: 20, 50 and 100 μM, respectively, in 1 % (v/v) DMSO, 0.05 % (v/v) Tween 20. […] MST traces were recorded at room temperature using a Nanotemper Monolith™ NT.115 Series Instrument with Monolith™ NT.115 standard treated capillaries and normalized to initial fluorescence (MO.Affinity Analysis, Nanotemper). […] Next, the statistical significance of the shift from K D to K D’ was determined for each compound by means of an unpaired Student's t test (Table S4). […] Data was analyzed and statistically evaluated with the program GraphPad Prism v.5.04 for Windows (GraphPad Software, San Diego, CA, USA).
a Shown are mean  SEM values of KD and KD’ for n separate experiments.
significant (n. s.), P > 0.05; *, P ≤ 0.05; **, P ≤ 0.01; ***, P ≤ 0.001; ****, P ≤ 0.0001. prec.

A further assay deals with CK2. More on the design: method as in PMID 29759799. The following applies: cited from earlier work.
Where [3] appears, read: c=10 μM, CE assay, mean±SD of three experiments, n.s.=not significant.

Each structure is given as a SMILES string. Read-outs that look alike come from different tables or passages of the source.

One may read the inhibition as the share of the control response that was lost under treatment. A word on the Ki: it is a measure of affinity in units of concentration, obtained from inhibition or displacement.

T1 sequence (P68400 whole entry): as the sequence (P68400 whole entry) above

For `COc1cc([C@H]2c3c([nH]c4ccccc34)[C@@H](C(=O)N3C(=O)OC[C@@H]3Cc3ccccc3)[C@H]3C(=O)OC(=O)[C@@H]23)cc(OC)c1OC` [(+)‐3 a, (3aR,4S,10S,10aS)‐4‐{[(S)‐4‐Benzyl‐2‐oxo‐1,3‐oxazolidin‐3‐yl]carbonyl}‐10‐(3,4,5‐trimethoxyphenyl)‐4,5,10,10a‐tetrahydrofuro[3,4‐b]carbazole‐1,3(3aH)‐dione], the inhibition at 10 µM on CK2α subunit (read-out: Inhibition (%) of CK2α) came to 76 ± 4%; at holoenzyme CK2α2β2, 84 ± 5%; in assay [1] it was 85 ± 13%. The IC50 in the assay with monomeric CK2α is 20 µM; with CK2α/CK2β interaction, […].
For the molecule `COc1cc([C@@H]2c3c([nH]c4ccccc34)[C@H](C(=O)N3C(=O)OC[C@@H]3Cc3ccccc3)[C@@H]3C(=O)NC(=O)[C@H]23)cc(OC)c1OC` [(−)‐9 b], on CK2α subunit, the “Inhibition (%) of CK2α” value is “n.s”. Further, the “Inhibition (%) of CK2α2β2” value on holoenzyme CK2α2β2 (setting [3]) is “n.s”. Moreover, the Ki in assay [2] amounted to 4.4 ± 0.3 µM. In addition, the “Inhibition (%) of CK2α’ ^C336S” value in assay [1] was “n.s”.
Take `COc1cc([C@@H]2c3c([nH]c4ccccc34)[C@H](C(=O)N3C(=O)OC[C@H]3Cc3ccccc3)[C@@H]3C(=O)N(C)C(=O)[C@H]23)cc(OC)c1OC` [(−)‐10 a, (3aR,4R,10R,10aR)‐4‐{[(R)‐4‐Benzyl‐2‐oxo‐1,3‐oxazolidin‐3‐yl]carbonyl}‐2‐methyl‐10‐(3,4,5‐trimethoxyphenyl)‐4,5,10,10a‐tetrahydropyrrolo[3,4‐b]carbazole‐1,3(2H,3aH)‐dione]: the “Inhibition (%) of CK2α” value at CK2α subunit is “n.s”. Moreover, the figures for the inhibition at 10 µM (at holoenzyme CK2α2β2 (setting [3]); in assay [1]) were 29 ± 14% and 30 ± 23%, respectively. In assay [2], the Ki was 8.5 ± 2.9 µM.
For the molecule `COc1cc([C@@H]2c3c([nH]c4ccccc34)[C@H](C(=O)N3C(=O)OC[C@@H]3Cc3ccccc3)[C@@H]3C(=O)N(C)C(=O)[C@H]23)cc(OC)c1OC` [(−)‐10 b], the “Inhibition (%) of CK2α” value at CK2α subunit is “n.s”. Further, the inhibition at 10 µM on holoenzyme CK2α2β2 (setting [3]) came to 15 ± 11%. The molecule also gave a Ki in assay [2] of 3.7 ± 0.7 µM. Moreover, in assay [1], the “Inhibition (%) of CK2α’ ^C336S” value was “n.s”.
On to `NCc1cc(Cl)cc(-c2cccc3[nH]ccc23)c1` [CAM187], for which the “Inhibition of CK2 activity” value with CK2 is recorded as “did not significantly inhibit CK2 activity”.
